Each structure is given as a SMILES string.

T1 sequence (Q9HBH9 whole entry): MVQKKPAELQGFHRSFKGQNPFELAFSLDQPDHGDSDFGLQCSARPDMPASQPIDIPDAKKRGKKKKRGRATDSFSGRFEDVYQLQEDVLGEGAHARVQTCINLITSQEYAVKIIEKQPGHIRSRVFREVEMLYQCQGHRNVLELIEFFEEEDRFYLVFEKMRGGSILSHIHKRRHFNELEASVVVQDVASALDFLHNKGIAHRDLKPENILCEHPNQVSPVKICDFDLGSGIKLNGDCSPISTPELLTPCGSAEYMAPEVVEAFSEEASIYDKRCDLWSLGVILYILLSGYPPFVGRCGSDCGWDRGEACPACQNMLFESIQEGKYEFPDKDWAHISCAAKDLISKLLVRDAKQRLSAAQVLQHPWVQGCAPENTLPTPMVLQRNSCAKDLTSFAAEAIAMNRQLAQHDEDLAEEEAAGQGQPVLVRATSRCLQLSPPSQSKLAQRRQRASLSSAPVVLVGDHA

The test has as its target T1, MNK2a (Homo sapiens, UniProt Q9HBH9).
T1 construct: made in house
The experiment in a line: MNK2a in vitro kinase assay (assay 1), ADP-Glo. The test is classed as biochemical. The following applies: preactivated GST-MNK2a, 20 μM ATP, read-out: MNK2 IC50. The method, then: A. MNK2a In Vitro Kinase Assay (Assay 1)
ASSAY SETUP: The inhibition of kinase activity of MNK2a was assessed using preactivated GST-MNK2a. The white, 384-well OptiPlate F plates were purchased from Perkin Elmer. The ADP-Glo Kinase Assay (including ultra pure ATP) was purchased from Promega (V9103). Activated MNK2a was obtained as described in WO2011/104340. The unlabeled eIF4E peptide (NH2-[…]—CONH2) (SEQ ID NO: 1), differing from Seq. ID No. 5 of WO 2011/104340 by the C-terminal —CONH2 group, was purchased from Thermo Fisher Scientific. All other materials were of highest grade commercially available. Compounds are tested in either serial dilutions or single dose concentrations. The compound stock solutions are 10 mM in 100% DMSO The serial compound dilutions are prepared in 100% DMSO followed by 1:27.3 intermediate dilution in assay buffer. The final DMSO concentration in assay will be <3%. In the 384-well plates 3 μl of test compound from the intermediate dilution is mixed with 4 μl of the activated MNK2 enzyme (final concentration of 10 nM) and 4 μl of the peptide (final concentration of 25 μM)/ultra pure ATP (final concentration of 20 μM), all dissolved in assay buffer. This step is followed by an incubation time of 90 min, then 10 μl of ADP Glo reagent are added, followed by 40 min of incubation. Then 20 μl of kinase detection reagent are admixed. The plates are sealed and after an incubation period of 30 min, the luminescence signal is measured in an Envision reader to determine the amount of produced ADP. All incubation steps are performed at room temperature. The assay buffer consists of 20 mM HEPES, 2 mM DTT, 0.01% BSA, 20 mM MgCl2 and 0.1% Pluronic F-127.
Each assay microtiter plate contains wells with vehicle controls instead of compound (1% DMSO in water) as reference for the high signal (100% CTL, high signal), and wells containing a potent MNK2 inhibitor (final 20 μM, 1% DMSO) as reference for low signal (0% CTL, low signal).
The luminescent signal generated is proportional to the ADP concentration produced and is correlated with activated MNK2 activity. The analysis of the data is performed by the calculation of the percentage of ATP consumption of activated MNK2 in the presence of the test compound compared to the consumption of ATP in the presence of activated MNK2 without compound. (RLU(sample)−RLU(low control))*100/(RLU(high value)−RLU(low control)) [RLU=relative luminescence units]
An inhibitor of the MNK2 enzyme will give values between 100% CTL (no inhibition) and 0% CTL (complete inhibition). Values of more than 100% CTL are normally related to compound/sample specific physico-chemical properties (e.g. solubility, light absorbance, fluorescence).
IC50 values based on dose response curves are calculated with the AssayExplorer software.
On to `Cc1cc(N=S(C)(C)=O)cc2ncnc(Nc3ccc(F)cc3OC3CCCC3)c12` [Example 2.70], for which the IC50 was found to be 2 nM.
Consider `CS(C)(=O)=Nc1cc(C(F)(F)F)c2c(Nc3ccc(F)cc3O[C@H]3CCOC3)ncnc2c1` [Example 1.5], for which the IC50 worked out at 3 nM.
Next, `Cc1cc(N=S2(=O)CCCC2)cc2ncnc(Nc3cccnc3O[C@H]3CC[C@H](O)CC3)c12` [Example 2.69]: 2 nM.
`COc1cc(N=S2(=O)CCCC2)cc2ncnc(Nc3ccc(F)cc3O[C@H]3CC[C@H](O)CC3)c12` [Example 2.90]: the IC50 was 2 nM.
Consider `CS(C)(=O)=Nc1cc(F)c2c(Nc3ccc(F)cc3OC3CCCC3)ncnc2c1` [Example 2.29], for which the IC50 is 3 nM.
As for `COc1cc(N=S(C)(C)=O)cc2ncnc(Nc3ccc(F)cc3O[C@H]3CCOC3)c12` [Example 5.2], the IC50 is 2 nM.
Next, `Cc1cc(N=S2(=O)CCCC2)cc2ncnc(Nc3ccc(F)cc3O[C@@H]3CO[C@H]4[C@@H]3OC[C@@H]4O)c12` [Example 2.83]: 1 nM; `CO[C@@H]1CO[C@H]2[C@@H]1OC[C@H]2Oc1cc(F)ccc1Nc1ncnc2cc(N=S3(=O)CCCC3)cc(C)c12` [Example 2.43]: 1 nM.
Next, `CS(C)(=O)=Nc1cc(Br)c2c(Nc3ccc(F)cc3O[C@H]3CCOC3)ncnc2c1` [Example 1.11]: 1 nM; `COc1cc(N=S2(=O)CCCC2)cc2ncnc(Nc3ccc(F)cc3O[C@@H]3CO[C@H]4[C@@H]3OC[C@H]4OC)c12` [Example 2.9]: 1 nM.
With `Cc1cc(N=S(C)(=O)c2ccncc2)cc2ncnc(Nc3ccc(F)cc3O[C@@H]3CO[C@@H]4CCO[C@@H]43)c12` (stereo partly shown) [Example 2.96], the IC50 was found to be 4 nM.
The value for `Cc1cc(N=S2(=O)CCCC2)cc2ncnc(Nc3ccc(F)cc3O[C@@H]3CO[C@H]4[C@@H]3OC[C@H]4O)c12` [Example 2.36] was 2 nM; that for `CCS(C)(=O)=Nc1cc(C)c2c(Nc3ccc(F)cc3O[C@H]3CC[C@H](O)CC3)ncnc2c1` (stereo partly shown) [Example 2.22] was 3 nM.
The value for `CCc1cc(N=S(C)(C)=O)cc2ncnc(Nc3ccc(F)cc3O[C@H]3CCOC3)c12` [Example 7.8] was 9 nM; that for `Cc1cc(N=S(C)(C)=O)cc2ncnc(Nc3ccc(F)cc3O[C@@H]3CCN(CC(F)F)C3)c12` [Example 6.14] was 3 nM.
Next, `Cc1cc(N=S(C)(C)=O)cc2ncnc(Nc3ccc(F)cc3O[C@H]3C[C@H](N)C3)c12` [Example 3.14]: 2 nM; `Cc1cc(N=S(C)(C)=O)cc2ncnc(Nc3ccc(F)cc3O[C@@H]3CC[C@H]3O)c12` [Example 1.34]: 3 nM; `Cc1cc(N=S(C)(C)=O)cc2ncnc(Nc3ccc(F)cc3O[C@@H]3CO[C@@H]4CCO[C@@H]43)c12` [Example 2.39]: 2 nM.
In the case of `CS(C)(=O)=Nc1cc(Cl)c2c(Nc3cccnc3O[C@H]3CC[C@H](O)CC3)ncnc2c1` [Example 1.16], the IC50 is 1 nM.
Next, `COc1cc(N=S2(=O)CCCC2)cc2ncnc(Nc3cccnc3O[C@H]3CC[C@H](O)CC3)c12` [Example 2.18]: 1 nM; `Cc1cc(N=S2(=O)CCCC2)cc2ncnc(Nc3ccc(F)cc3O[C@@H]3CCN(CC(F)F)C3)c12` [Example 6.4]: 2 nM.
Next, `O=S1(=Nc2cc(Cl)c3c(Nc4ccc(F)cc4O[C@@H]4CO[C@@H]5CCO[C@@H]54)ncnc3c2)CCCC1` [Example 1.7]: 1 nM; `CO[C@H]1CC[C@H](Oc2ncccc2Nc2ncnc3cc(N=S(C)(C)=O)cc(C)c23)CC1` [Example 2.68]: 3 nM; `Cc1cc(N=S2(=O)CCCC2)cc2ncnc(Nc3ccc(F)cc3OC3CCc4ccccc43)c12` (stereo not shown) [Example 4.6]: 3 nM.
Regarding `Cc1cc(N=S(C)(C)=O)cc2ncnc(Nc3ccc(F)cc3O[C@H]3CC[C@H](O)CC3)c12` [Example 2.71], the IC50 stood at 3 nM.
Next, `COC1CS(=O)(=Nc2cc(C)c3c(Nc4ccc(F)cc4O[C@@H]4CO[C@@H]5CCO[C@@H]54)ncnc3c2)C1` (stereo partly shown) [Example 2.105]: 2 nM; `Cc1cc(N=S(C)(C)=O)cc2ncnc(Nc3ccc(F)cc3O[C@@H]3CCOC3)c12` [Example 2.5]: 3 nM.
The value for `Cc1cc(N=S2(=O)CCCC2)cc2ncnc(Nc3ccc(F)cc3O[C@@H]3CO[C@@H]4CCO[C@@H]43)c12` [Example 2.42] was 1 nM; that for `Cc1cc(N=S(C)(C)=O)cc2ncnc(Nc3ccc(F)cc3OC3COCCOC3)c12` [Example 2.60] was 3 nM.
The value for `Cc1cc(N=S2(=O)CCCC2)cc2ncnc(Nc3ccc(F)cc3OC3COCCOC3)c12` [Example 2.25] was 2 nM.
Take `CO[C@@H]1CO[C@H]2[C@@H]1OC[C@H]2Oc1cc(F)ccc1Nc1ncnc2cc(N=S3(=O)CCCC3)cc(Cl)c12` [Example 1.13]: the IC50 turned out to be 1 nM.
Next, `Cc1cc(N=S(C)(C)=O)cc2ncnc(Nc3ccc(F)cc3OC3CCC(O)C3)c12` (racemic) [Example 4.3]: 3 nM; `O=S1(=Nc2cc(Cl)c3c(Nc4ccc(F)cc4O[C@H]4CCOC4)ncnc3c2)CCCC1` [Example 1.8]: 1 nM.
The value for `CO[C@H]1CC[C@H](Oc2cc(F)ccc2Nc2ncnc3cc(N=S4(=O)CCCC4)cc(C)c23)CC1` [Example 2.48] was 2 nM; that for `Cc1cc(N=S(C)(C)=O)cc2ncnc(Nc3ccc(F)cc3O[C@@H]3CCCC[C@@H]3O)c12` [Example 1.39] was 7 nM.
The value for `CS(C)(=O)=Nc1cc(Cl)c2c(Nc3ccc(F)cc3O[C@@H]3CO[C@H]4[C@@H]3OC[C@@H]4O)ncnc2c1` [Example 1.3] was 1 nM.
`CS(C)(=O)=Nc1cc(Cl)c2c(Nc3ccc(F)cc3O[C@H]3CCOC3)ncnc2c1` [Example 1.14]: the IC50 worked out at 1 nM.
Next, `CS(C)(=O)=Nc1cc(F)c2c(Nc3ccc(F)cc3O[C@H]3CCOC3)ncnc2c1` [Example 2.89]: 3 nM.
The value for `Cc1cc(N=S2(=O)CCCC2)cc2ncnc(Nc3ccc(F)cc3O[C@@H]3CCCN(S(C)(=O)=O)C3)c12` [Example 6.3] was 2 nM; that for `Cc1cc(N=S2(=O)CCC(O)C2)cc2ncnc(Nc3ccc(F)cc3O[C@H]3CCOC3)c12` (stereo partly shown) [Example 2.93] was 4 nM.
The value for `Cc1cc(N=S2(=O)CCCCC2)cc2ncnc(Nc3ccc(F)cc3O[C@H]3CCOC3)c12` [Example 2.78] was 3 nM; that for `Cc1cc(N=S(C)(C)=O)cc2ncnc(Nc3ccc(F)cc3O[C@H]3CC[C@@](C)(O)CC3)c12` [Example 2.74] was 3 nM.
In the case of `CS(C)(=O)=Nc1cc(Cl)c2c(Nc3ccc(F)cc3O[C@@H]3CO[C@H]4[C@@H]3OC[C@H]4O)ncnc2c1` [Example 1.6], the IC50 amounted to 1 nM.
